Experimental data published in ChEMBL document CHEMBL1201862, “PubChem BioAssay data set” (2004).
Active and inactive are the calls of the source. Rule as the data show it: actives have a measured IC50 and inactives only a lower limit.

Molecular target: Envelope glycoprotein gp160 (Human immunodeficiency virus 1, UniProt Q6QLK5)
Test: cell-free HIV fusion peptide-binding blockers – biochemical, uHTS, fluorescence dequenching, […] (AID 1986)

Chain of Envelope glycoprotein gp160 (Q6QLK5 whole entry, the tested form may be a part): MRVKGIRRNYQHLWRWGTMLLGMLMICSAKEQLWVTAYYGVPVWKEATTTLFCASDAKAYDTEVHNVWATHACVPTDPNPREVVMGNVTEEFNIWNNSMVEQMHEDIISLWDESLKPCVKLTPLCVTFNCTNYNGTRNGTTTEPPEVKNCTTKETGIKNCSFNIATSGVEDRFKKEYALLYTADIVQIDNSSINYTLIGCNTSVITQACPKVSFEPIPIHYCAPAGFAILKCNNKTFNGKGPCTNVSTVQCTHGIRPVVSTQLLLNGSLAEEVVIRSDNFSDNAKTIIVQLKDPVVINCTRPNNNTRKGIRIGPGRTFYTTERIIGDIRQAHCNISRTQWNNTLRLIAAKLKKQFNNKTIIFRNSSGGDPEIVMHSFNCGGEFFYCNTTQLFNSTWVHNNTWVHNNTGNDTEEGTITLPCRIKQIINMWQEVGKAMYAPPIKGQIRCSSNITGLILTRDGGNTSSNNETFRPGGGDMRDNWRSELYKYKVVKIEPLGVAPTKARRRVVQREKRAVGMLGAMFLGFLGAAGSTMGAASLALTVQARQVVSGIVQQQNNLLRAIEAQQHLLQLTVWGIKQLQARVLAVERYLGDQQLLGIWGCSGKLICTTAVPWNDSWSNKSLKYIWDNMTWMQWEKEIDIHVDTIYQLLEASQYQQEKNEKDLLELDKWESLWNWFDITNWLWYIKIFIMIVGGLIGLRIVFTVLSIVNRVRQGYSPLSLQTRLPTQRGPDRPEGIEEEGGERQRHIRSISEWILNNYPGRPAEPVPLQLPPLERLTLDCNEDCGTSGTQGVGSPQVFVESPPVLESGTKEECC

Cc1c(CC(=O)O)c(=O)oc2c(C)c3occ(-c4ccc(Br)cc4)c3cc12
IC50: 27.6 µM (active)

Cc1cc(/C=C2\C(=N)N3N=C(S(C)(=O)=O)SC3=NC2=O)c(C)n1Cc1ccccc1
IC50: 26.2 µM (active)

CC(C)(C)c1cc(-c2csc(Nc3ccccc3)[n+]2Cc2ccc(C(=O)O)cc2)cc(C(C)(C)C)c1O
IC50: 12.9 µM (active)

O=C(O)CN1C(=O)/C(=C\c2cc(Br)ccc2OCc2ccc([N+](=O)[O-])cc2)SC1=S
IC50: 10.1 µM (active)
